How the values were obtained:
[1] = biological target: T1, human dopamine D2L receptors (long isoform) (Homo sapiens, UniProt P14416); test: Dopamine D2L receptor binding, displacement of [125I] iodospiperone; conditions: membranes of HEK-293 cells stably expressing human D2L; 0.01 nM [125I] iodospiperone; 25° C., 60 minutes; read-out: Ki(D2)*
T1 construct: expressed in transfected cells
Procedure: (§1) The substance to be tested was either dissolved in methanol/Chremophor® (BASFAG) or in dimethyl sulfoxide and then diluted with water to the desired concentration.
(§2) Each assay mixture was run in triplicate.
The incubation buffer contained 50 mM tris, 120 mM NaCl, 5 mM KCl, 2 mM CaCl2, 2 mM MgCl2 and 0.1% bovine serum albumin. The buffer was adjusted to pH 7.4 with HCl.
(§3) After having been incubated at 25° C. for 60 minutes, the assay mixtures were filtered through a Whatman GF/B glass fiber filter under vacuum using a cell collecting device. The filters were transferred to scintillation viols using a filter transfer system. After 4 ml of Ultima Gold® (Packard) have been added, the samples were shaken for one hour and the radioactivity was then counted in a Beta-Counter (Packard, Tricarb 2000 or 2200CA). The cpm values were converted into dpm using a standard quench series and the program belonging to the instrument.
(§4) The inhibition curves were analyzed by means of iterative nonlinear regression analysis using the Statistical Analysis System (SAS) which is similar to the “LIGAND” program described by Munson and Rodbard.
(§5) The results of the receptro binding studies are expressed as receptor binding constants Ki(D2) and Ki(D3), respectively, as herein before described, and given in table 6.

[2] = biological target: T2, human dopamine D3 receptors (Homo sapiens, UniProt P35462); test: Dopamine D3 receptor binding, displacement of [125I]-iodosulpride; conditions: for Ki: membranes of HEK-293 cells stably expressing human D3, 0.1 nM [125I]-iodosulpride, 25° C., 60 minutes; for Ki(D2)*/Ki(D3)*: selectivity ratio of the receptor binding constants D2 over D3
T2 construct: expressed in transfected cells
T2 sequence (P35462 whole entry): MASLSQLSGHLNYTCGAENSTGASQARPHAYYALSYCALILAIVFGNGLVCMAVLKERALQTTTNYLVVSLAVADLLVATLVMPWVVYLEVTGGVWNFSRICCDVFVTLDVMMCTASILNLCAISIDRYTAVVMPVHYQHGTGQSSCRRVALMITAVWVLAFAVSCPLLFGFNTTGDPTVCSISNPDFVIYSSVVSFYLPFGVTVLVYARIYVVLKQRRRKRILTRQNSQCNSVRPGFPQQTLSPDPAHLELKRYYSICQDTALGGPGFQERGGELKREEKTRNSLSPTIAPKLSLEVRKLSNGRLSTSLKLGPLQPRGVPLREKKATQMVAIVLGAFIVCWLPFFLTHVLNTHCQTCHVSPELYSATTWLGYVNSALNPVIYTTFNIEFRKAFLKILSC
Procedure: as §1, §2
The incubation buffer contained 50 mM tris, 120 mM NaCl, 5 mM KCl, 2 mM CaCl2, 2 mM MgCl2 and 0.1% bovine serum albumin, 10 μM quinolone and 0.1% ascorbic acid (prepared fresh daily). The buffer was adjusted to pH 7.4 with HCl.
as §3, §4, §5

T1 sequence (P14416 whole entry, canonical isoform): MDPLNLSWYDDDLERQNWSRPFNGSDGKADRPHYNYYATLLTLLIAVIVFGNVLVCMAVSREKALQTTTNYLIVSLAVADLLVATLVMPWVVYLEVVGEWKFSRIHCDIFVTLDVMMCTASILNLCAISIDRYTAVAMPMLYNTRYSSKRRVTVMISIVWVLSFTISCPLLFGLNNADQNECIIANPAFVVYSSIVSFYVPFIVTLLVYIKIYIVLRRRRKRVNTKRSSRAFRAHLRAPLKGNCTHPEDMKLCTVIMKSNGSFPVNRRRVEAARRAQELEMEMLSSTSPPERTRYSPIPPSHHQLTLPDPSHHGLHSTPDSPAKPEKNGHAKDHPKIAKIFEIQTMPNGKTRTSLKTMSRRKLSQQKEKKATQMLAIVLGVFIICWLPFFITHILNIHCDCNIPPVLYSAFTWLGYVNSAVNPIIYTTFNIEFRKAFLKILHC

SMILES	Ki [1] [nM]	Ki [2] [nM]	Ki(D2)*/Ki(D3)* [2]
CN1CC[C@@H](c2ccc(NS(=O)(=O)c3ccc(OC(F)(F)F)cc3)cc2)C1 [Example 111, N-[4-((S)-1-Methyl-pyrrolidin-3-yl)-phenyl]-4-trifluoromethoxy-benzenesulfonamide]	723	16.4	44
C=C(C)c1ccc(S(=O)(=O)Nc2ccc([C@@H]3CCN(CCC)C3)cc2)cc1F [Example 20, 3-Fluoro-4-isopropenyl-N-[4-((S)-1-propyl-pyrrolidin-3-yl)-phenyl]-benzenesulfonamide]	7.3	0.3	24
CCCN1CC[C@@H](c2ccc(NS(=O)(=O)c3ccc(CC(C)C)cc3)cc2)C1.Cl [Example 35, 4-Isobutyl-N-[4-((S)-1-propyl-pyrrolidin-3-yl)-phenyl]-benzenesulfonamide hydrochloride]	7.4	0.3	24
CCCN1CC[C@@H](c2ccc(NS(=O)(=O)c3ccc(Br)cc3)cc2)C1.Cl [Example 25, 4-Bromo-N-[4-((S)-1-propyl-pyrrolidin-3-yl)-phenyl]-benzenesulfonamide hydrochloride]	95	1.6	60
CCCN1CC[C@@H](c2ccc(NS(=O)(=O)c3ccc(C4CC4)cc3)cc2)C1 [Example 27, 4-Cyclopropyl-N-[4-((S)-1-propyl-pyrrolidin-3-yl)-phenyl]-benzenesulfonamide]	7.1	0.23	30
CCCN1CC[C@@H](c2ccc(NS(=O)(=O)c3ccc(CCF)cc3)cc2)C1.Cl [Example 86, 4-(2-Fluoro-ethyl)-N-[4-((S)-1-propyl-pyrrolidin-3-yl)-phenyl]-benzenesulfonamide, hydrochloride]	119	1.18	101
CCCN1CC[C@@H](c2ccc(NS(=O)(=O)c3ccc4c(c3)CCC4)cc2)C1.Cl [Example 24, Indan-5-sulfonic acid [4-((S)-1-propyl-pyrrolidin-3-yl)-phenyl]-amide hydrochloride]	72	1.2	60
CCCN1CC[C@@H](c2ccc(NS(=O)(=O)c3ccc(Br)s3)cc2)C1.Cl [Example 28, 5-Bromo-thiophene-2-sulfonic acid [4-((S)-1-propyl-pyrrolidin-3-yl)-phenyl]-amide hydrochloride]	133	3.3	41
C=CCN1CCC(c2ccc(NS(=O)(=O)c3ccc(C(C)C)cc3)c(OC)c2)C1.Cl (stereo not drawn) [Example 137, N-[4-(1-Allyl-pyrrolidin-3-yl)-2-methoxy-phenyl]-4-isopropyl-benzenesulfonamide, hydrochloride]	–	0.36	12
CCCN1CC[C@@H](c2ccc(NS(=O)(=O)c3ccc(Br)cc3F)cc2)C1 [Example 17, 4-Bromo-2-fluoro-N-[4-((S)-1-propyl-pyrrolidin-3-yl)-phenyl]-benzenesulfonamide]	126	3.1	41
O=S(=O)(Nc1ccc([C@@H]2CCN(CCCF)C2)cc1)c1ccc(OC(F)(F)F)cc1 [Example 114, N-{4-[(S)-1-(3-Fluoro-propyl)-pyrrolidin-3-yl]-phenyl}-4-trifluoromethoxy-benzenesulfonamide]	464	4.2	111
CC(C)c1ccc(S(=O)(=O)Nc2ccc([C@@H]3CCN(CC4CC4)C3)cc2)cc1 [Example 94, N-[4-((S)-1-Cyclopropylmethyl-pyrrolidin-3-yl)-phenyl]-4-isopropyl-benzenesulfonamide]	4.7	0.23	21
C=Cc1ccc(S(=O)(=O)Nc2ccc([C@@H]3CCN(CCC)C3)cc2)cc1 [Example 123, N-[4-((S)-1-Propyl-pyrrolidin-3-yl)-phenyl]-4-vinyl-benzenesulfonamide]	41	0.45	91
C=C(C)c1ccc(S(=O)(=O)Nc2ccc([C@@H]3CCN(CCC)C3)cc2)s1 [Example 29, 5-Isopropenyl-thiophene-2-sulfonic acid [4-((S)-1-propyl-pyrrolidin-3-yl)-phenyl]-amide]	27.3	0.67	41
CCCN1CC(c2ccc(NS(=O)(=O)c3ccc([C@@H](C)CF)cc3)cc2)C1 [Example 59, 4-((R)-2-Fluoro-1-methyl-ethyl)-N-[4-(1-propyl-azetidin-3-yl)-phenyl]-benzenesulfonamide]	1520	6.41	238
CCCN1CC[C@@H](c2ccc(NS(=O)(=O)c3ccc(OC)cc3)cc2)C1 [Example 12, 4-Methoxy-N-[4-((S)-1-propyl-pyrrolidin-3-yl)-phenyl]-benzenesulfonamide]	131	3	43
C=CCN1CC[C@H](c2ccc(NS(=O)(=O)c3ccc(C(C)C(F)(F)F)cc3)cc2)C1 (stereo partly drawn) [Example 112, N-[4-((R)-1-Allyl-pyrrolidin-3-yl)-phenyl]-4-(2,2,2-trifluoro-1-methyl-ethyl)benzenesulfonamide]	1200	10.3	116
CCCN1CC[C@@H](c2ccc(NS(=O)(=O)c3ccc(C)cc3)cc2)C1.Cl [Example 10, 4-Methyl-N-[4-((S)-1-propyl-pyrrolidin-3-yl)-phenyl]-benzenesulfonamide hydrochloride]	111	1.9	60
CC(=O)O.COc1cc(C2CCNC2)ccc1NS(=O)(=O)c1ccc(C(C)C)cc1 (stereo not drawn) [Example 135, 4-Isopropyl-N-(2-methoxy-4-pyrrolidin-3-yl-phenyl)-benzenesulfonamide, acetate]	–	0.85	17

More lines, in order of falling Ki [2], values ahead:

Ki [1] [nM]	Ki [2] [nM]	Ki(D2)*/Ki(D3)* [2]	SMILES
473	35.1	13	CCCN1CC[C@@H](c2ccc(NS(=O)(=O)c3ccc(N4CCCC4=O)cc3)cc2)C1 [Example 72, 4-(2-Oxo-pyrrolidin-1-yl)-N-[4-((S)-1-propyl-pyrrolidin-3-yl)-Phenyl]-benzenesulfonamide]
–	21.3	–	CCCN1CC(c2ccc(NS(=O)(=O)c3ccc(CCC(F)(F)F)cc3)cc2)C1 [Example 61, N-[4-(1-Propyl-azetidin-3-yl)-phenyl]-4-(3,3,3-trifluoro-propyl)-benzenesulfonamide]
257	10.8	24	CCCN1CCC(c2ccc(NS(=O)(=O)c3ccc(C(C)C)cc3)cn2)C1 (stereo not drawn) [Example 31, N-[6-(1-propyl-pyrrolidin-3-yl)-pyridin-3-yl]-4-isopropyl-benzene-sulfonamide]
309	6.1	51	CCCN1CC[C@@H](c2ccc(NS(=O)(=O)c3ccc(Cl)s3)cc2)C1 [Example 105, 5-Chloro-thiophene-2-sulfonic acid [4-((S)-1-propyl-pyrrolidin-3-yl)-phenyl]-amide]
268	3.7	73	C=CCN1CC[C@@H](c2ccc(NS(=O)(=O)c3ccc(OC(F)(F)F)cc3)cc2)C1 [Example 101, N-[4-((S)-1-Allyl-pyrrolidin-3-yl)-phenyl]-4-trifluoromethoxy-benzenesulfonamide]
–	0.76	13	CCCN1CCC(c2ccc(NS(=O)(=O)c3ccc(C(C)C)cc3)c(F)c2)C1.Cl (stereo not drawn) [Example 134, N-[2-Fluoro-4-(1-propyl-pyrrolidin-3-yl)-phenyl]-4-isopropyl-benzenesulfonamide, hydrochloride]
64.7	0.6	112	CCCN1CC[C@@H](c2ccc(NS(=O)(=O)c3ccc(N4CCC(F)(F)C4)cc3)cc2)C1 [Example 127, 4-(3,3-Difluoro-pyrrolidin-1-yl)-N-[4-((S)-1-propyl-pyrrolidin-3-yl)-phenyl]-benzenesulfonamide]
45.8	0.42	108	C=CCN1CC[C@@H](c2ccc(NS(=O)(=O)c3ccc(CCCF)cc3)cc2)C1 [Example 107, N-[4-((S)-1-Allyl-pyrrolidin-3-yl)-phenyl]-4-(3-fluoro-propyl)-benzene sulfonamide]
5.85	0.41	14	CC(C)c1ccc(S(=O)(=O)Nc2ccc([C@@H]3CCN(CCCO)C3)cc2)cc1 [Example 53, N-{4-[(S)-1-(3-Hydroxy-propyl)-pyrrolidin-3-yl]-phenyl}-4-isopropyl-benzenesulfonamide]
–	0.27	6	CCCN1CCC(c2ccc(NS(=O)(=O)c3ccc(C(C)C)cc3)c(OC)c2)C1.Cl (stereo not drawn) [Example 136, 4-Isopropyl-N-[2-methoxy-4-(1-propyl-pyrrolidin-3-yl)-phenyl]-benzenesulfonamide, hydrochloride]
